Patent US9993494B2, “Compositions and methods for treating fibrotic disease” (eFFECTOR Therapeutics, Inc., priority 2014, dated 2018)

Tested on: normal human lung fibroblasts
Assay: Ribosomal profiling: translational efficiency in TGFβ-treated fibroblasts
Format: cell-based
Details: TGFβ-treated fibroblasts
Description: Ribosomal profiling allows for measurement of changes in transcription and translation on a genome-wide basis accompanying TGFβ-dependent transformation of fibroblasts to myofibroblasts. Ribosomal profiles of the TGFβ-treated fibroblasts from Example 1 (about 6×10^6 cells/10 cm plate) were prepared and analyzed for changes in translational efficiencies with respect to potential disease-associated cellular changes accompanying this TGFβ-induced transformation.
Briefly, cells were washed with cold PBS supplemented with cycloheximide and lysed with 1× mammalian cell lysis buffer for 10 minutes on ice. Lysates were clarified by centrifugation for 10 minutes at 14,000 rpm and supernatants were collected. Cell lysates were processed to generate ribosomal protected fragments and total mRNA according to the instructions included with the ARTseq Ribosome Profiling Kit (Illumina, San Diego, Calif.). Sequencing of total RNA (RNA) and of ribosome-protected fragments of RNA (RPF) was carried out using RNA-Seq methodology according to the manufacturer's instructions (Illumina). To analyze the ribosomal profiles, RNA-Seq reads were processed with tools from the FASTX-Toolkit (fastq_quality_trimmer, fastx_clipper and fastx_trimmer). Unprocessed and processed reads were evaluated for a variety of quality measures using FastQC, and processed reads were mapped to the human genome using TopHat (see, e.g., Trapnell et al., Bioinformatics 25:1105, 2009). Gene-by-gene assessment of the number of fragments strictly and uniquely mapping to the coding region of each gene was conducted using HTSeq-count, a component of the HTSeq package. […] Genes with low counts in either RPF or RNA were excluded from differential analyses. Pathway and network analyses of differential data were conducted using Ingenuity Pathway Analysis (IPA).

Cc1cc(C2CCCCC2)n(O)c(=O)c1.NCCO [CPX, ciclopirox oloamine]
effect in renormalizing the translational profile of the gene (gene RPS6 (ENSG00000137154)): − (− = <0.9) | effect in renormalizing the translational profile of the gene (gene RPS6KA5 (ENSG00000100784)): − (− = <0.9) | effect in renormalizing the translational profile of the gene (gene RPS7 (ENSG00000171863)): − (− = <0.9) | effect in renormalizing the translational profile of the gene (gene RPS8 (ENSG00000142937)): − (− = <0.9) | effect in renormalizing the translational profile of the gene (gene RPS9 (ENSG00000170889)): − (− = <0.9) | effect in renormalizing the translational profile of the gene (gene RPS10 (ENSG00000124614)): − (− = <0.9) | effect in renormalizing the translational profile of the gene (gene RPS11 (ENSG00000142534)): − (− = <0.9) | effect in renormalizing the translational profile of the gene (gene RPS12 (ENSG00000112306)): − (− = <0.9) | effect in renormalizing the translational profile of the gene (gene RPS13 (ENSG00000110700)): − (− = <0.9) | effect in renormalizing the translational profile of the gene (gene RPS14 (ENSG00000164587)): − (− = <0.9) | effect in renormalizing the translational profile of the gene (gene RPS15 (ENSG00000115268)): − (− = <0.9) | effect in renormalizing the translational profile of the gene (gene RPS15A (ENSG00000134419)): − (− = <0.9) | effect in renormalizing the translational profile of the gene (gene RPS16 (ENSG00000105193)): − (− = <0.9) | effect in renormalizing the translational profile of the gene (gene RPS18 (ENSG00000231500)): − (− = <0.9) | effect in renormalizing the translational profile of the gene (gene RPS19 (ENSG00000105372)): − (− = <0.9) | effect in renormalizing the translational profile of the gene (gene RPS20 (ENSG00000008988)): − (− = <0.9) | effect in renormalizing the translational profile of the gene (gene RPS21 (ENSG00000171858)): − (− = <0.9) | effect in renormalizing the translational profile of the gene (gene RPS23 (ENSG00000186468)): − (− = <0.9) | effect in renormalizing the translational profile of the gene (gene RPS24 (ENSG00000138326)): − (− = <0.9) | effect in renormalizing the translational profile of the gene (gene RPS25 (ENSG00000118181)): − (− = <0.9) | effect in renormalizing the translational profile of the gene (gene RPS26 (ENSG00000197728)): − (− = <0.9) | effect in renormalizing the translational profile of the gene (gene RPS27 (ENSG00000177954)): − (− = <0.9) | effect in renormalizing the translational profile of the gene (gene RPS27A (ENSG00000143947)): − (− = <0.9) | effect in renormalizing the translational profile of the gene (gene RPS28 (ENSG00000233927)): + (+ = 0.9 to 1.5) | effect in renormalizing the translational profile of the gene (gene RPS29 (ENSG00000213741)): − (− = <0.9) | effect in renormalizing the translational profile of the gene (gene RPSA (ENSG00000168028)): − (− = <0.9) | effect in renormalizing the translational profile of the gene (gene RTN2 (ENSG00000125744)): − (− = <0.9) | effect in renormalizing the translational profile of the gene (gene SEMA3A (ENSG00000075213)): − (− = <0.9) | effect in renormalizing the translational profile of the gene (gene SGIP1 (ENSG00000118473)): − (− = <0.9) | effect in renormalizing the translational profile of the gene (gene SH3BGR (ENSG00000185437)): − (− = <0.9) | effect in renormalizing the translational profile of the gene (gene SHC3 (ENSG00000148082)): +++ (+++ = >2.0) | effect in renormalizing the translational profile of the gene (gene SLC2A12 (ENSG00000146411)): − (− = <0.9) | effect in renormalizing the translational profile of the gene (gene SLC7A7 (ENSG00000155465)): − (− = <0.9) | effect in renormalizing the translational profile of the gene (gene SLC15A3 (ENSG00000110446)): − (− = <0.9) | effect in renormalizing the translational profile of the gene (gene SLC25A6 (ENSG00000169100)): − (− = <0.9) | effect in renormalizing the translational profile of the gene (gene SLC40A1 (ENSG00000138449)): ++ (++ = 1.5 to 2.0) | effect in renormalizing the translational profile of the gene (gene SMO (ENSG00000128602)): − (− = <0.9) | effect in renormalizing the translational profile of the gene (gene SNRPA (ENSG00000077312)): − (− = <0.9) | effect in renormalizing the translational profile of the gene (gene SOX5 (ENSG00000134532)): − (− = <0.9) | effect in renormalizing the translational profile of the gene (gene SOX6 (ENSG00000110693)): − (− = <0.9) | effect in renormalizing the translational profile of the gene (gene SPATA6 (ENSG00000132122)): − (− = <0.9) | effect in renormalizing the translational profile of the gene (gene STAMBPL1 (ENSG00000138134)): + (+ = 0.9 to 1.5) | effect in renormalizing the translational profile of the gene (gene STS (ENSG00000101846)): − (− = <0.9) | effect in renormalizing the translational profile of the gene (gene SYNE2 (ENSG00000054654)): − (− = <0.9) | effect in renormalizing the translational profile of the gene (gene TAF1D (ENSG00000166012)): − (− = <0.9) | effect in renormalizing the translational profile of the gene (gene TDG (ENSG00000139372)): − (− = <0.9) | effect in renormalizing the translational profile of the gene (gene TEN1 (ENSG00000257949)): − (− = <0.9) | effect in renormalizing the translational profile of the gene (gene TET2 (ENSG00000168769)): − (− = <0.9) | effect in renormalizing the translational profile of the gene (gene TET3 (ENSG00000187605)): − (− = <0.9) | effect in renormalizing the translational profile of the gene (gene TGFBI (ENSG00000120708)): − (− = <0.9) | effect in renormalizing the translational profile of the gene (gene THBS3 (ENSG00000169231)): − (− = <0.9) | effect in renormalizing the translational profile of the gene (gene THG1L (ENSG00000113272)): − (− = <0.9) | effect in renormalizing the translational profile of the gene (gene TIMM9 (ENSG00000100575)): − (− = <0.9) | effect in renormalizing the translational profile of the gene (gene TKT (ENSG00000163931)): − (− = <0.9) | effect in renormalizing the translational profile of the gene (gene TMTC1 (ENSG00000133687)): − (− = <0.9) | effect in renormalizing the translational profile of the gene (gene TOMM7 (ENSG00000196683)): + (+ = 0.9 to 1.5) | effect in renormalizing the translational profile of the gene (gene TOP2A (ENSG00000131747)): − (− = <0.9) | effect in renormalizing the translational profile of the gene (gene TPGS1 (ENSG00000141933)): − (− = <0.9) | effect in renormalizing the translational profile of the gene (gene TPM2 (ENSG00000198467)): − (− = <0.9) | effect in renormalizing the translational profile of the gene (gene TPT1 (ENSG00000133112)): − (− = <0.9) | effect in renormalizing the translational profile of the gene (gene TRERF1 (ENSG00000124496)): − (− = <0.9) | effect in renormalizing the translational profile of the gene (gene UBA52 (ENSG00000221983)): − (− = <0.9) | effect in renormalizing the translational profile of the gene (gene UQCRB (ENSG00000156467)): − (− = <0.9) | effect in renormalizing the translational profile of the gene (gene UTRN (ENSG00000152818)): − (− = <0.9) | effect in renormalizing the translational profile of the gene (gene VIM (ENSG00000026025)): − (− = <0.9) | effect in renormalizing the translational profile of the gene (gene ZNF581 (ENSG00000171425)): − (− = <0.9)
